Patent publication US9498412B2, “Method for producing microcapsules with a sun protection effect” (Greenjoy Biotech Co., Ltd., priority 2014, dated 2016)
Where two headings read alike, the source gives them in different places.

Format: in vitro ADME
Conditions: Landrace, pig, 3 % in mineral oil
Procedure: 5. In Vitro Transdermal Delivery Analysis:
(1) Preparing penetration membranes from a swine skin: An ear skin of a 6-month-old Landrace pig was prepared and cleaned with deionized water. The upper skin of the pig ear was cut by a scalpel to remove the fat layer. Then, the pig ear was cut into a plurality of penetration membranes each having an area of 1.5×1.5 cm^2 and each having a thickness of 605 μm. The penetration membranes were soaked in phosphate buffer saline (PBS), were sealed in a bag, and were frozen for future use.
(2) Before experiment, the penetration membranes were unfrozen in PBS to room temperature such that the gaps between the keratinocyte cells returned to their natural state. The penetration membranes were fixed in a Franz-type diffusion cell (see FIG. 2). The diffusion area was 0.636 cm^2. To test the skin integrity, the upper and lower sections of the diffusion cell were filled with 50% ethanol+50% PBS. After removing bubbles from the lower chamber, a sample of 0.5 g was placed into the upper, donor cell, and 50% ethanol+50% PBS was placed into the lower, receptor cell having a volume of 5.3 mL. A thermostat water tank heater was used to control the water temperature to be 35° C.±1. Stirring was carried out by using a magnet to balance the drug concentration distribution in the receptor cell.
(3) Each experiment used 5 diffusion cells to obtain the average value. 50 μL was sampled from the receptor cell and analyzed by HPLC. The same amount of a physiological solution was filled back into the receptor cell to maintain the total volume in the receptor cell.
(4) The injected volume was 50 μL. The detection wavelength was 260 nm. A mixture of 88% methanol, 11% water, and 1% acetic acid was used as the mobile phase in isocratic elution. The flow rate of the mobile phase was 1.0 mL/min. OMC of 1 ppm, 10 ppm, 50 ppm, and 100 ppm and avobenzone standard solution were used to create a calibration curve. Each concentration was detected three times to obtain the average value. Peak-ABC Chromatography Data Handling System (manufactured by Great Tide Instruments, Taiwan) was used to capture and handle the signals. A sample of 50 μL was sampled from the receptor cell and analyzed by HPLC. Peak-ABC Chromatography Data Handling System was used to analyze the concentration for calculating the lag time and the flux.
The Franz-type diffusion cell system was used to assess the penetration characteristics of carrier-entrapped filters. […] The stratum corneum is an important barrier of the skin for resisting alien objects and is also a hindrance to transdermal delivery of an active constituent. During an initial stage of passage from the donor site to the receptor site through the skin, there is a lag time for the active constituent to penetrate the membrane of the saturated skin. After that, the active constituent remains in steady-state diffusion for a period of time during which the diffusion flux is not changed.
Assume the concentrations of the active constituent at the donor site and the receptor site of the penetration membrane are respectively Cv and Cr, the mechanism of initial transdermal absorption can be explained by Fick's first law of diffusion: J=dQ/Dt=DAK(Cv−Cr)/h
wherein J is the transdermal flux, Q is the cumulative penetration amount, D is the diffusion coefficient, A is the diffusional surface area, K is the partition coefficient, and h is the diffusional pathlength.
Since Cr is very small at the initial stage of penetration, DC=(Cv−Cr) arrpoximates Cv. The transdermal flux is in proportion to the concentration difference ([…]). Thus, the slope of an optimal line in a diagram obtained from the cumulative penetration quantity Q and the penetration time t is the transdermal flux J. The lag time parameter can be obtained by linear extrapolation to the intersection on X axis. […]

Compound | Amount in receptor site (0 h) [μg/cm^2] | Transdermal flux (%) (0 h) | lag time [h] | Amount in receptor site (0.5 h) [μg/cm^2] | Transdermal flux (%) (0.5 h) | Amount in receptor site (1 h) [μg/cm^2] | Transdermal flux (%) (1 h) | Amount in receptor site (2 h) [μg/cm^2] | Transdermal flux (%) (2 h) | Amount in receptor site (3 h) [μg/cm^2] | Transdermal flux (%) (3 h) | transdermal flux (4 h) [μg/cm^2·hr] | Amount in receptor site (6 h) [μg/cm^2] | Transdermal flux (%) (6 h) | transdermal flux (6 h) [μg/cm^2·hr]
CCCCC(CC)COC(=O)C=Cc1ccc(OC)cc1 (stereo not shown) [OMC, octyl methoxycinnamate] | 0 | 0 | 0.15 | 0 | 0 | 31.84 ± 1.81 | 0.13 ± 0.01 | 65.15 ± 7.96 | 0.28 ± 0.03 | 121.97 ± 4.95 | 0.52 ± 0.02 | 40.069 | 227.55 ± 12.94 | 0.96 ± 0.05 | –
COc1ccc(C(=O)CC(=O)c2ccc(C(C)(C)C)cc2)cc1 [avobenzone] | 0 | 0 | 0.23 | 0 | 0 | 20.12 ± 2.19 | 0.09 ± 0.01 | 48.21 ± 2.73 | 0.20 ± 0.01 | 84.85 ± 4.27 | 0.36 ± 0.02 | – | 161.26 ± 3.74 | 0.68 ± 0.02 | 28.237
